Data as given in US20170159129A1, “METHODS FOR DETECTING TELOMERE MAINTENANCE MECHANISMS” (priority 2015, published 2017).

System: ALT+ cell lines U2OS, Saos-2 and G-292
Experiment: Flow-FISH G to C ratio assay for inhibition of ALT activity in ALT+ cell lines
Type: cell-based
Details: ALT+ cell lines incubated with 3 mM HU for 48 hours; untreated ALT+ lines above 0.8; ratio below 0.8 indicates a decrease in ALT activity
Excerpt: The present disclosure is directed to a novel improvement of flow-FISH that has been adapted for quantifying ALT activity in a cell. Briefly, cells to be analyzed are first mixed with an internal standard for telomeric DNA content. In one embodiment, the 1301 cell line, a T-cell leukemia cell line with long homogeneous telomeres is used. In other embodiments, flow cytometry microbeads with telomeric oligonucleotides can also be used to provide a standard. […] In some embodiments, the labels have the same fluorescence and stability characteristics (e.g. FITC). In other embodiments, the labels for the two probes may be different and have different fluorescence and stability characteristics. […] After incubation, cells are washed in flow cytometry staining buffer and then analyzed by flow cytometry.
Relative C-strand content and relative G-strand content of the sample cells is determined, and a ratio of G content to C content calculated. First, the mean fluorescence of the probes is measured for both sample cells and standard. […] The fluorescent marker in the standard allows for identification of the internal standard and separation of its Tel G and Tel C probe fluorescence. […]

NC(=O)NO [hydroxyurea] was tested, and the “G to C ratio (relative telomeric G content to C content, relative to 1301 cell standard)” value was “below 0.8”.
